Reference: US5658880A, “Sialic acid/fucose based medicaments” (Glycomed Incorporated, priority 1994, dated 1997)

Columns and labels:
[1] = test system: neutrophil migration into the peritoneum; assay: Murine thioglycollate induced peritonitis: neutrophil migration to the peritoneal cavity; assay type: in vivo, mouse (Swiss Webster); settings: mice, tail vein injection, 3 h after thioglycollate, FIG. 7(a) and (b)
Source text: The efficaciousness of 7 and 10 was shown using a murine thioglycollate induced peritonitis model. The assay materials and methods are known in the art, or are generally described by Lewinsohn, D. et al., J. Immun., 138:4313-4321 (1987), or Watson, S. et al., Nature 349:164-166 (1991). This assay measures the ability of the compounds to inhibit neutrophil migration to the peritoneal cavity, the migration being initiated by the presence of thioglycollate in the peritoneal cavity. Thioglycollate is a known and effective inflammatory agent that causes neutrophil migration into the mouse peritoneum when it is administered intraperitoneally. Lewinsohn, D. et al., J. Immun. (1987) 138:4313-4321. Briefly, female Swiss Webster mice weighing about 25 grams were injected in the tail vein with 200 μl of phosphate buffered saline (PBS) with or without the appropriate compound. The pH of the solutions was adjusted to neutrality by the addition of either NaOH or HCL and sterilized by filtration through a 0.2 μ filter. Immediately following injection with the appropriate compound or PBS, the mice were injected intraperitoneally with 1 ml of thioglycollate medium prepared as described by the manufacturer, BBL. Three hours following injection of the thioglycollate solution the mice were sacrificed by CO2 asphyxiation, and the number of cells in the peritoneum removed by lavage with 5 ml of heparinized (5 U/ml) 0.9% sodium chloride solution containing 0.1% bovine serum albumin. Cell number was determined using a Coulter Counter. The cells were prepared for counting by diluting the lavage fluid with 1:50 of a commercial physiological isotonic solution, Isoton II, and the cells lysed by adding S/P Lysing and Hemoglobin Reagent (1:100 final dilution). Cell nuclei were counted in a sized window with lower and upper limits set at 3.9 and 5.7 μm, respectively.

[2] = test system: P-selectin; assay: ELISA: inhibition of P-selectin-IgG chimera binding to 2,3 sLe^x glycolipid; set-up: species or system human; settings: inhibition of binding to 2,3 sLex glycolipid
Source text: (§1) An ELISA assay is preferably used that employs recombinant fusion proteins composed of extracellular portions of the human selectins joined to human immunoglobulin heavy chain CH3, CH2, and hinge regions. See, for example, Walz et al., Science (1990) 250:1132; Aruffo et al., Cell (1991) 67:35; Aruffo et al., Proc. Natl. Acad. Sci. USA. (1992) 89:2292. The assay is well known in the art, and generally consists of the following three steps:
(§2) I. 2,3 sLe^x glycolipid (25 picomole/well) was transferred into microtiter wells as solutions and then evaporated off. Excess, which remained unattached, was washed off with water. The wells were then blocked with 5% BSA at room temperature for an hour and then washed with PBS containing 1 mM calcium.
(§3) II. Preparation of "multivalent" receptor of the Selectin-lgG chimera was carried out by combining the respective chimera (1 μg/mL) with biotin labelled goat F(ab')2 anti-human IgG (Fc specific) and streptavidin-alkaline phosphatase diluted 1:1000 in 1% BSA-PBS (1 mM calcium) and incubating at 37° C. for 15 min. This allowed the soluble multivalent receptor complex to form. III. Potential inhibitors such as the compounds of formula I or II were allowed to react with the soluble receptor at 37° C. for 45 min. This test assumes that optimal binding, between the soluble phase receptor complex and the inhibitor (non natural ligand), would have occurred within this time frame. This solution was then placed in the microtiter wells that were prepared in step I. The plate was incubated at 37° C. for 45 minutes to allow the soluble receptor to bind to its natural ligand. In the presence of a strong inhibitor only a few receptors should be free to bind to the microtiter plate coated with the natural ligand.
(§4) The positive control is the signal produced by the soluble receptor when it is allowed to react with 2,3 sLe^x glycolipid in the microtiter wells in the absence of any inhibitor. This positive control was considered 100% binding. The signal produced by the receptor that had been previously treated with an inhibitor (recorded as O.D.), was divided by the signal produced by the positive control and multiplied by 100 to calculate the % receptor bound to the well in the presence of the inhibitor. The reciprocal of this number is the % inhibition.
as §1, with “was employed” for “is preferably used”, “uses” for “employs”, “USA” for “USA.”
(§5) II. Preparation of "multivalent" receptor of the Selectin-IgG chimera was carried out by combining the respective chimera 1 μg/ml) with biotin labelled goat F(ab')2 anti-human IgG (Fc specific) and streptavidin-alkaline phosphatase diluted 1:1000 in 1% BSA-PBS (1 mM calcium) and incubating at 37° C. for 15 min. This allowed the soluble multivalent receptor complex to form.
(§6) III. Potential inhibitors such as compounds of formula I or II were allowed to react with the soluble receptor at 37° C. for 45 min. This test assumes that optimal binding, between the soluble phase receptor complex and the inhibitor (non natural ligand), would have occurred within this time frame. This solution was then placed in the microtiter wells that were prepared in step I. The plate was incubated at 37° C. for 45 minutes to allow the soluble receptor to bind to its natural ligand. In the presence of a strong inhibitor only a few receptors should be free to bind to the microtiter plate coated with the natural ligand.
(§7) The positive control is the signal produced by the soluble receptor when it is allowed to react with 2,3 sLe^x glycolipid in the microtiter wells in the absence of any inhibitor. This was considered 100% binding. […]

[3] = test system: L-selectin; assay: ELISA: inhibition of L-selectin-IgG chimera binding to 2,3 sLe^x glycolipid; set-up: species or system human
Source text: as §1, §2, §3, §4
as §1, with “was employed” for “is preferably used”, “uses” for “employs”, “USA” for “USA.”
as §5, §6, §7

[4] = test system: E-selectin; assay: ELISA: inhibition of E-selectin-IgG chimera binding to 2,3 sLe^x glycolipid; set-up: species or system human; settings: inhibition of binding to 2,3 sLex glycolipid
Source text: as §1, §2, §3, §4
as §1, with “was employed” for “is preferably used”, “uses” for “employs”, “USA” for “USA.”
as §5, §6, §7

- IC50 [2]: ~500 µM
- IC50 ([3]; inhibition of binding to 2,3 sLex glycolipid): 2000 to 3000 µM
- IC50 [4]: 2000 to 3000 µM
SMILES: CC(OCCCCCCOC1O[C@@H](C)[C@@H](O)[C@@H](O)[C@@H]1O)C(=O)O (stereo partly drawn) [Compound 10, 1-O-(α-β-L-Fucopyranosyl)-6-O-[(R,S)-1-Carboxyethyl]-Hexane]
- inhibit neutrophil migration into the peritoneum [1]: inhibit neutrophil migration into the peritoneum
- inhibition of L-selectin binding to 2,3 sLe^x glycolipid ([3]; FIG. 5 and FIG. 6, result in words): at all four concentrations of the compound tested there is significant inhibitory activity
